According to US10413583B2, “Synthetic substrates for enzymes that catalyze reactions of modified cysteines and related methods” (The University of Chicago, priority 2016, dated 2019):

Key:
[1] = tested on: A431 cells; test: DPP-3 in A431 cells, starvation and EGF stimulation (flow cytometry, microscopy); assay type: cell-based, human; settings: serum starved A431; 1 ng/mL EGF for 15 min; 5 μM DPP-3
Procedure: (§1) Cells were plated on a 10 cm dish with 10 mL of DMEM/High Glucose (10% FBS, 1% P/S, L-Glutamine, Sodium pyruvate) 36-48 hours prior to the day of experiment and maintained at 37° C., 5% CO2 so as to obtain 80-90% confluency. Cells were washed with DPBS and trypsinized with 1 mL 0.05% Trypsin. 5 mL of DMEM/High Glucose (10% FBS, L-Glutamine, Sodium pyruvate) was added and cells were spun down at 1200 rpm for 3 min. Media was discarded and cells were resuspended in 5 mL of Live Cell Imaging Solution and again spun down at 1200 rpm for 3 min. The cells pellets obtained were resuspended in 3-5 mL of Live Cell Imaging Solution and divided into 500 μL aliquots. The aliquots were treated with either 0.2% DMSO carrier or 1 μM of PalmB/ML348 or 1 μM/5 μM of ML349 inhibitor. After 30 min of incubation at room temperature, 1 μL of 2.5 mM DPP-3 in DMSO was added to each aliquot for a final concentration of 5 μM, and the solutions were mixed. After 5 min incubation at room temperature, fluorescence signal in FITC channel was measured for 10000 cells (5000 for HeLa experiments) on a LSR-Fortessa 4-15 HTS (BD digital instrument, 488 nm laser with 530/30 nm filter for FITC; BD, Franklin Lakes, N.J., United States of America). For analyzing DPP2 in HEK293T cells, the aliquots were treated with either 0.2% DMSO carrier or 2 μM of PalmB, 5 or 20 μM of ML348/ML349 and then analyzed by the protocol as mentioned above. Data was analyzed by FlowJo software version 10.0.8. For comparison of A431 starved versus non-starved, parallel 10 cm dishes of A431 cells were plated in 10 mL of DMEM (high glucose, 10% FBS, 1% P/S), and grown for 36 h. The growth media was removed, and replaced by 10 mL of either DMEM (High glucose) with 10% FBS to maintain “growth” conditions, or DMEM (High glucose) without FBS respectively for “starvation” conditions, and incubated for 14 h. After trypsinization, both plates were treated with 5 mL of DMEM (high glucose) for spinning the cells down, and further processing and analysis were performed as described above by flow cytometry.
Parallel 35 mm glass bottom dishes (D35-10-1.5-N; Cellvis, Mountain View, Calif., United States of America) of A431 cells (450,000) were plated in 2 mL of DMEM glutamax (high glucose, 10% FBS, 1% P/S), and grown for 36 h. The growth media was removed, and replaced by 1.5 mL of either DMEM (High glucose) with 10% FBS to maintain “growth” conditions, or DMEM (High glucose) without FBS respectively for “starvation” conditions, and incubated for 24 h. […] For data analysis, the average fluorescence intensity per image in each experimental condition was obtained by selecting ROIs in the brightfield image. For display, the data were normalized to the average fluorescence intensity of the control conditions. […]

[2] = target: T1, APT1 (Homo sapiens, UniProt O75608); test: In vitro kinetic assay and emission spectra of DPP-1, DPP-2, DPP-3 with purified APT1 (with detergent); assay type: biochemical
T1 construct: His-tag; made in house; host or cells: E. coli ROSETTA DE3
Procedure: 50 μL of 7.5 μM DPP1-3 in HEPES (20 mM, pH=7.4, 150 mM NaCl, 0.1% Triton X-100) were added to a 384-well black flat bottom plate (Corning Life Sciences, Corning, N.Y., United States of America) and placed in an Infinite M200 Pro (Tecan, Mannedorf, Switzerland) plate reader at 37° C. for 5 min to warm. 25 μL of either 4-(2-hydroxyethyl)-1-piperazineethanesulfonic acid (HEPES) buffer alone or HEPES buffer containing 150 nM APT1 or APT2, was added using a multi-channel pipette, resulting in a final concentration of 5 μM DPP1-3 and 50 nM APT1 or APT2. Fluorescence intensities (λex 490/9 nm, λem 545/20 nm, Gain 70, No. of flashes 25, Integration time 100 μs and Z-position 20000 μm) were measured at 30 second (s) time intervals for 20 min. At the end of 20 min kinetic run, emission spectra were obtained (λex 485 nm, Aem510-700 nm, Gain 100, No. of flashes 25, Integration time 100 μs and Z-position 20,000 μm).

[3] = Water solubility of probes (stated in words); assay type: physicochemical
[4] = tested on: HEK293T cells; test: Live cell fluorescence imaging and flow cytometry of DPP-2 and DPP-3 in HEK293T cells; assay type: cell-based, human; settings: 1 μM DPP-2 for 15 min, microscopy or flow cytometry
Procedure: HEK293T (650,000 cells per dish) cells were plated with 1.5 mL of Dulbecco's Modified Eagle Medium (DMEM) (High Glucose, 10% fetal bovine serum (FBS)) in a 35 mm glass bottom dish (D35-10-1.5-N; Cellvis, Mountain View, Calif., United States of America) 24 hrs prior to imaging. 30 min before the addition of the DPP probe, the cell culture media was removed and cells were washed with 1 mL of Delbecco's phosphate-buffered saline (DPBS). The media was then replaced with 1 mL of DMEM containing 1 μM Hoechst 33342 and either 0.1% DMSO carrier as a control, 1 or 2 μM Palm B, 0.1, 1.0, or 5 μM ML348, and incubated for 30 min at 37° C. and 5% CO2. The media was removed, the cells were washed with 1 mL of Live Cell Imaging Solution (Thermo Fisher Scientific, Waltham, Mass., United States of America), and 1 mL of 1 μM DPP-2 or DPP-3 in Live Cell Imaging Solution was added to each plate. For ML348 0.1, 1.0, or 5 μM was added along with DPP-2 or DPP-3. After incubation for 15 min at 37° C. and 5% CO2, images were obtained on an inverted epi-fluorescence microscope (Olympus IX83; Olympus Corporation, Tokyo, Japan) attached with EMCCD camera (Photometrics EVOLVE™ Delta; Photometrics, Tucson, Ariz., United States of America) with 40× oil objective (N/A 1.3) for DPP-2 (excitation filter 500/20, dichroic chroma 89007, emission filter 535/30, exposure time 200 ms, EM gain 25), Hoechst 33342: (excitation filter 402/15, emission filter 455/50, dichroic chroma 89013, exposure time 30 ms, EM gain 25), and brightfield (exposure time 5 ms, EM gain 5), and for DPP-3 (exposure time 500 ms, EM gain 150), Hoechst 33342: (exposure time 30 ms, EM gain 25), and brightfield (exposure time 20 ms, EM gain 5). Analyses were performed in ImageJ. For data analysis, the average fluorescence intensity per image in each experimental condition was obtained by selecting regions of interest (ROIs) in the brightfield image. For display, the data were normalized to the average fluorescence intensity of the control conditions. Each experiment was repeated at least three separate times with identical results.
Cells were plated on a 10 cm dish with 10 mL of DMEM/High Glucose (10% FBS, 1% P/S, L-Glutamine, Sodium pyruvate) 36-48 hours prior to the day of experiment and maintained at 37° C., 5% CO2 so as to obtain 80-90% confluency. Cells were washed with DPBS and trypsinized with 1 mL 0.05% Trypsin. 5 mL of DMEM/High Glucose (10% FBS, L-Glutamine, Sodium pyruvate) was added and cells were spun down at 1200 rpm for 3 min. Media was discarded and cells were resuspended in 5 mL of Live Cell Imaging Solution and again spun down at 1200 rpm for 3 min. The cells pellets obtained were resuspended in 3-5 mL of Live Cell Imaging Solution and divided into 500 μL aliquots. The aliquots were treated with either 0.2% DMSO carrier or 1 μM of PalmB/ML348 or 1 μM/5 μM of ML349 inhibitor. After 30 min of incubation at room temperature, 1 μL of 2.5 mM DPP-3 in DMSO was added to each aliquot for a final concentration of 5 μM, and the solutions were mixed. After 5 min incubation at room temperature, fluorescence signal in FITC channel was measured for 10000 cells (5000 for HeLa experiments) on a LSR-Fortessa 4-15 HTS (BD digital instrument, 488 nm laser with 530/30 nm filter for FITC; BD, Franklin Lakes, N.J., United States of America). For analyzing DPP2 in HEK293T cells, the aliquots were treated with either 0.2% DMSO carrier or 2 μM of PalmB, 5 or 20 μM of ML348/ML349 and then analyzed by the protocol as mentioned above. Data was analyzed by FlowJo software version 10.0.8. For comparison of A431 starved versus non-starved, parallel 10 cm dishes of A431 cells were plated in 10 mL of DMEM (high glucose, 10% FBS, 1% P/S), and grown for 36 h. The growth media was removed, and replaced by 10 mL of either DMEM (High glucose) with 10% FBS to maintain “growth” conditions, or DMEM (High glucose) without FBS respectively for “starvation” conditions, and incubated for 14 h. […]

[5] = tested on: HeLa cells; test: Flow cytometry of DPP-3 in HeLa cells; assay type: cell-based, human; settings: 5 μM DPP-3, 5 min, flow cytometry
Procedure: as §1

[6] = tested on: MCF-7 cells; test: Flow cytometry of DPP-3 in MCF-7 cells; assay type: cell-based, human; settings: 5 μM DPP-3, 5 min, flow cytometry
Procedure: as §1

[7] = tested on: MDA-MB-231 cells; test: Flow cytometry of DPP-3 in MDA-MB-231 cells; assay type: cell-based, human; settings: MDA-MB-231; 5 μM DPP-3, 5 min, flow cytometry
Procedure: as §1

T1 sequence (O75608 whole entry): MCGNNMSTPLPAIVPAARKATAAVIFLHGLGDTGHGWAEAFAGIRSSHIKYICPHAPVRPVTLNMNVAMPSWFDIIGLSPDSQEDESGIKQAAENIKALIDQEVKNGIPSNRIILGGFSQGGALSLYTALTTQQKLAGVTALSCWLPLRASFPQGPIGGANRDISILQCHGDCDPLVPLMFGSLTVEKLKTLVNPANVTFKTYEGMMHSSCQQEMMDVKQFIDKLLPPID

Compound | effect on depalmitoylation activity measured by DPP-3 [1] | enhancement in fluorescence signal ([2]; 5 μM probe, 50 nM APT1, 20 min) [fold] | selectivity for APT1 over APT2 ([2]; in vitro, purified APT1 vs APT2) | performance as substrate / reaction kinetics ([2]; purified APT1) | water solubility [3] | probe fluorescent signal in live cells [4] | detection of endogenous depalmitoylase activities by probe [5] | detection of endogenous depalmitoylase activities by probe [6] | detection of endogenous depalmitoylase activities by probe [7]
EGF: epidermal growth factor, obtained from Gold Biotechnology (NSDSECPLSHDGYCLHDGVCMYIEALDKYACNCVVGYIGERCQYRDLKWWELR; UniProt P01133 971-1023, looked up) | inhibition of depalmitoylation activity |  |  |  |  |  |  |  | 
CCCCCCCC(=O)SC[C@@H](C(=O)N[C@@H](CCCCN)C(=O)OC)N(C)C(=O)Oc1ccc2c(c1)Oc1cc(N(C)C)ccc1C21OC(=O)c2ccccc21 (stereo partly drawn) [DPP-3] |  | 400 | modest selectivity for APT1 over APT2 | striking reaction kinetics | water soluble | functions in live cells | can detect endogenous depalmitoylase activities | can detect endogenous depalmitoylase activities | can detect endogenous depalmitoylase activities
